Counter-ions that a name gives are not always drawn.
These molecules were tested on recombinant guanylate cyclase reporter cell line (assay: Effect on a recombinant guanylate cyclase reporter cell line). Settings: in some cases mean values from individual determinations.
Format: cell-based
Protocol: B-2. Effect on a Recombinant Guanylate Cyclase Reporter Cell Line
The cellular activity of the compounds according to the invention is determined using a recombinant guanylate cyclase reporter cell line, as described in F. Wunder et al., Anal. Biochem. 339, 104-112 (2005).
Representative MEC values (MEC=minimum effective concentration) for the compounds of the invention are shown in the table below (in some cases as mean values from individual determinations): […]

Going from `Cc1cc(OCc2c(F)cccc2F)n2nc(C)c(C(=O)N[C@@](C)(CO)c3nnc(C)s3)c2c1` [Example 1, 7-[(2,6-Difluorobenzyl)oxy]-N-[(2S)-1-hydroxy-2-(5-methyl-1,3,4-thiadiazol-2-yl)propan-2-yl]-2,5-dimethylpyrazolo[1,5-a]pyridine-3-carboxamide trifluoroacetate] to `Cc1cc(OCc2c(F)cccc2F)n2nc(C)c(C(=O)NC(C)(CO)c3nnn(C(F)F)n3)c2c1` (racemic) [Example 2, rac-7-[(2,6-Difluorobenzyl)oxy]-N-{2-[2-(difluoromethyl)-2H-tetrazol-5-yl]-1-hydroxypropan-2-yl}-2,5-dimethylpyrazolo[1,5-a]pyridine-3-carboxamide], the “MEC (minimum effective concentration)” value falls from 0.20 µM to 0.10 µM (2-fold).

Compared with `Cc1cc(OCc2c(F)cccc2F)n2nc(C)c(C(=O)NCC(C)(N)CC[Si](C)(C)C)c2c1` (single isomer, unassigned; enantiomer a) [Example 4, ent-N-[2-Amino-2-methyl-4-(trimethylsilyl)butyl]-7-[(2,6-difluorobenzyl)oxy]-2,5-dimethylpyrazolo[1,5-a]pyridine-3-carboxamide (Enantiomer A)], `[2H]C([2H])([2H])CC(C)(N)CNC(=O)c1c(C)nn2c(OCc3c(F)cccc3F)cc(C)cc12` (single isomer, unassigned; enantiomer a) [Example 3, ent-N-[2-Amino-2-methyl(4,4,4,4-^2H3)butyl]-7-[(2,6-difluorobenzyl)oxy]-2,5-dimethylpyrazolo[1,5-a]pyridine-3-carboxamide (Enantiomer A)] is 1.8-fold lower in “MEC (minimum effective concentration)” value: 0.53 µM for the first, 0.30 µM for the second.

`Cc1cc(OCc2c(F)cccc2F)n2nc(C)c(C(=O)NCC(C)(N)CC[Si](C)(C)C)c2c1` (single isomer, unassigned; enantiomer b) [Example 5, ent-N-[2-Amino-2-methyl-4-(trimethylsilyl)butyl]-7-[(2,6-difluorobenzyl)oxy]-2,5-dimethylpyrazolo[1,5-a]pyridine-3-carboxamide (Enantiomer B)] was tested, and the “MEC (minimum effective concentration)” value was 0.30 µM.

— US10214526B2, “Substituted pyrazolo[1,5-a]-pyridine-3-carboxamides and use thereof” (Bayer Pharma Aktiengesellschaft, priority 2015, dated 2019)
